According to patent publication US11812774B2, “Composition for browning inhibition and use of same” (SUNTORY HOLDINGS LIMITED, priority 2016, dated 2023):

Assays:
[1] = Aldehyde-scavenging substance screening (Br value and Xt value, 96-well microplate); conditions: sample solution 600 ppm total phenol; epicatechin + glyoxal; 70° C., 16 hours; Br and Xt values relative to negative control; N=3
Experimental: Aldehyde-scavenging ability of a candidate substance was evaluated based on how much the candidate substance added to a mixture of glyoxal (model aldehyde) and epicatechin (reaction substrate) can inhibit browning. The negative control was distilled water. As positive control, fractions 6, 7, and 8 (mixtures containing baicalin and baicalin glycosides (compounds containing one to three glucose molecules bonded to a sugar moiety of baicalin)) obtained in Preparation 1 were used.
A glyoxal aqueous solution (39% (v/v)) and epicatechin were used as reagents. […]
Accelerated aging was performed at 70° C. for 16 hours, and the area under the spectrum at 400 to 600 nm and the absorbance at 487 nm were measured.
The amount of change in the visible absorbance before and after accelerated aging was calculated. […] The Br value indicates the amount of change Δ in the area under the spectrum at 400 to 600 nm, and the Xt value indicates the amount of change Δ in the absorbance at 487 nm. […] In FIG. 14, the solid line indicates the absorbance when a substance having an aldehyde-scavenging effect (a substance having a browning-inhibiting effect) was added, and the dashed line indicates the absorbance of the negative control. […]

[2] = Experimental: A sample solution was prepared by dissolving a candidate substance in water to adjust the total phenol amount derived from the candidate substance to 600 ppm. The total phenol amount was measured by the Folin-Denis method, using gallic acid as a standard substance.
[3] = LC-MS analysis of accelerated-aged mixture of baicalin and glyoxal; conditions: baicalin 0.5 g/L + glyoxal 0.01 g/L, condition 3 (oxygen aeration, 123° C., 30 min)
Experimental: A mixture (green tea model) of epicatechin (EC) (0.5 g/L) and glyoxal (0.01 g/L) was accelerated-aged under condition 3 (after oxygen aeration, stored at 123° C. for 30 minutes) in Test Example 2, and analyzed by LC-MS under the following conditions. • LC-MS measurement conditions • LC • Column: 2.5 Cholester (Nacalai Tesque, Inc.) (100 mmL.×2.0 I.D.) • Mobile phase: • A: 0.1% formic acid/H2O • B: 0.1% formic acid/CH3CN • Gradient elution method • Time program (concentration of B solution is expressed in percent by volume): B 5% (0-0.5 min)→B 32% (20 min)→B 100% (25-27.5 min)→B 5% (27.51-30 min) • Flow rate: 0.25 mL/min • Column temperature: 40° C. • Sample injection volume: 2 μL • MS • Probe voltage: +4.5 kV (ESI positive mode) • −3.5 kV (ESI negative mode) • Nebulizer gas flow rate: 1.5 L/min • Drying gas flow rate: 20 L/min • DL temperature: 250° C. • DL voltage/Q-array voltage: default value • SCAN: m/z 100-800 (positive, negative) • SIM: A mixture of baicalin (0.5 g/L) and glyoxal (0.01 g/L) was accelerated-aged under condition 3 (after oxygen aeration, stored at 30 min at 123° C.) of Test Example 2, and analyzed by LC-MS. LC-MS measurement conditions are the same as those in Test Example 5. […]

[4] = Accelerated aging of baicalin/epicatechin/glyoxal mixtures, visible absorption spectrum and residual catechin by LC-MS; conditions: 15 minutes
Experimental: The following three kinds of solutions were prepared. B+G: a mixture of baicalin (0.5 g/L) and glyoxal (0.01 g/L) B+C+G: a mixture of baicalin (0.5 g/L), epicatechin (0.5 g/L), and glyoxal (0.01 g/L) C+G: a mixture of epicatechin (0.5 g/L) and glyoxal (0.01 g/L)
These solutions were kept in an autoclave at 121° C. for 15 minutes for accelerated aging. After accelerated aging, changes in color were checked by visual observation, and further, the visible absorption spectrum was measured.
FIG. 10(a) is a picture showing the appearance of the mixture of baicalin and glyoxal (B+G), the mixture of baicalin, epicatechin, and glyoxal (B+C+G), and the mixture of epicatechin and glyoxal (C+G) after accelerated aging; and FIG. 10(b) is a diagram showing visible absorption spectra of the same (FIG. 10(a): picture, (b): visible absorption spectra). In FIG. 10(b), the solid line indicates the mixture (B+G), the dashed line indicates the mixture (B+C+G), and the long dashed dotted line indicates the mixture (C+G).
Further, after accelerated aging, the amount of epicatechin (the amount of a residual catechin) in the mixture (B+C+G) and the mixture (C+G) was measured by LC-MS under the same conditions as in Test Example 3.

[5] = Accelerated aging of epicatechin/glyoxal model solution, change in visible absorption spectrum; conditions: baicalin 0.5 g/L added to epicatechin 0.5 g/L + glyoxal 0.01 g/L; condition 3 (oxygen aeration, 123° C., 30 minutes); compared to no baicalin
Experimental: The preparation prepared above was subjected to an aging test under the following conditions, and then the visible absorption spectrum was measured. Condition 1: purged with nitrogen, stored at 4° C. for one hour Condition 2: stored at 121° C. for […] Condition 3: after oxygen aeration, stored at 123° C. for 30 minutes Baicalin (0.5 g/L) was added to a model solution obtained by mixing epicatechin (0.5 g/L) with glyoxal (0.01 g/L). The mixture was accelerated-aged under condition 3 (after oxygen aeration, stored at 123° C. for 30 minutes) in Test Example 2, and the amount of change in the visible absorption spectrum (ΔABU) before and after accelerated aging was calculated. FIG. 9 is a diagram showing changes in a visible absorption spectrum of the model solution by addition of baicalin.

| Compound | aldehyde-scavenging ability [1] | water solubility [2] | production of compound having a xanthylium structure (brown) by reaction with glyoxal [3] | absorption at 487 nm after accelerated aging ([4]; B+C+G (baicalin 0.5 g/L, epicatechin 0.5 g/L, glyoxal 0.01 g/L) vs C+G, autoclave 121° C.) | amount of the residual catechin in a solution after accelerated aging ([4]; B+C+G vs C+G, 121° C., epicatechin by LC-MS) | amount of change in the visible absorption spectrum (ΔABU) before and after accelerated aging [5] |
| --- | --- | --- | --- | --- | --- | --- |
| COc1ccc(-c2oc3c(CC=C(C)C)c(O[C@@H]4O[C@H](CO)[C@@H](O)[C@H](O)[C@H]4O)cc(O)c3c(=O)c2O[C@@H]2O[C@@H](C)[C@H](O)[C@@H](O)[C@H]2O)cc1 [icariin] | confirmed | poor water solubility |  |  |  |  |
| O=C(O)[C@H]1O[C@@H](Oc2cc3oc(-c4ccc(O)cc4)cc(=O)c3c(O)c2O)[C@H](O)[C@@H](O)[C@@H]1O [scutellarin] | confirmed |  |  |  |  |  |
| O=C(O)[C@H]1O[C@@H](Oc2cc3oc(-c4ccccc4)cc(=O)c3c(O)c2O)[C@H](O)[C@@H](O)[C@@H]1O [baicalin] |  |  | No compound having a xanthylium structure that exhibits brown was detected | significantly reduces | increases | significantly reduced |
